Reference: patent US20110039721A1, “METHOD FOR PREDICTION ABOUT CARCINOGENICITY OF SUBSTANCE IN RODENT” (Chemicals Evaluation and Research Institute, priority 2007, published 2011)

Assays:
[1] = tested on: mRNA expressed from the genes (A) to (D) in rat liver; test: Behavior of genes (mRNA expression level, oligo-DNA microarray) in rat liver after 28-day oral administration; assay type: in vivo; details: rat, in vivo
In short: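 Male F344 SPF rats, 5 weeks old, four per group, received carcinogens, non-carcinogens or solvent vehicle by oral gavage once daily for 28 days. Liver total RNA was then extracted. Changes of ≥1.5-fold or ≤1/1.5 versus vehicle control, in a consistent direction across carcinogens, counted as significant.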

liver = details: in vivo; cited from earlier work
rodent = details: in vivo; cited from earlier work

Oc1cccc2cccnc12 [TS007, 8-Hydroxyquinoline]
Cr−: Liver carcinogenicity (liver)
−: Behavior of gene caused by administration of chemical substance, Gene No. 154 [1] | Behavior of gene caused by administration of chemical substance, Gene No. 533 [1] | Behavior of gene caused by administration of chemical substance, Gene No. 725 [1] | Behavior of gene caused by administration of chemical substance, Gene No. 813 [1] | Behavior of gene caused by administration of chemical substance, Gene No. 893 [1] | Behavior of gene caused by administration of chemical substance, Gene No. 1119 [1] | Behavior of gene caused by administration of chemical substance, Gene No. 1131 [1] | Behavior of gene caused by administration of chemical substance, Gene No. 1163 [1] | Behavior of gene caused by administration of chemical substance, Gene No. 1334 [1] | Behavior of gene caused by administration of chemical substance, Gene No. 1494 [1] | Behavior of gene caused by administration of chemical substance, Gene No. 1562 [1] | Behavior of gene caused by administration of chemical substance, Gene No. 1741 [1] | Behavior of gene caused by administration of chemical substance, Gene No. 1993 [1] | Behavior of gene caused by administration of chemical substance, Gene No. 2026 [1] | Behavior of gene caused by administration of chemical substance, Gene No. 2045 [1] | Behavior of gene caused by administration of chemical substance, Gene No. 2203 [1] | Behavior of gene caused by administration of chemical substance, Gene No. 2494 [1] | Behavior of gene caused by administration of chemical substance, Gene No. 2546 [1] | Behavior of gene caused by administration of chemical substance, Gene No. 3776 [1] | Behavior of gene caused by administration of chemical substance, Gene No. 3929 [1] | Behavior of gene caused by administration of chemical substance, Gene No. 4095 [1] | Behavior of gene caused by administration of chemical substance, Gene No. 4218 [1] | Behavior of gene caused by administration of chemical substance, Gene No. 4846 [1] | Behavior of gene caused by administration of chemical substance, Gene No. 4973 [1] | Behavior of gene caused by administration of chemical substance, Gene No. 5600 [1] | Behavior of gene caused by administration of chemical substance, Gene No. 5634 [1] | Behavior of gene caused by administration of chemical substance, Gene No. 5878 [1] | Behavior of gene caused by administration of chemical substance, Gene No. 6026 [1] | Behavior of gene caused by administration of chemical substance, Gene No. 6182 [1] | Behavior of gene caused by administration of chemical substance, Gene No. 6303 [1] | Behavior of gene caused by administration of chemical substance, Gene No. 6620 [1] | Behavior of gene caused by administration of chemical substance, Gene No. 6742 [1]
+: Behavior of gene caused by administration of chemical substance, Gene No. 5726 [1]
C−: Carcinogenicity (rodent)
